From patent publication US20090062342A1, “AMINES” (Actelion Pharmaceuticals Ltd., priority 2006, published 2009)

Target: T1, recombinant human renin (Homo sapiens, UniProt P00797)
T1 sequence (P00797 67-406): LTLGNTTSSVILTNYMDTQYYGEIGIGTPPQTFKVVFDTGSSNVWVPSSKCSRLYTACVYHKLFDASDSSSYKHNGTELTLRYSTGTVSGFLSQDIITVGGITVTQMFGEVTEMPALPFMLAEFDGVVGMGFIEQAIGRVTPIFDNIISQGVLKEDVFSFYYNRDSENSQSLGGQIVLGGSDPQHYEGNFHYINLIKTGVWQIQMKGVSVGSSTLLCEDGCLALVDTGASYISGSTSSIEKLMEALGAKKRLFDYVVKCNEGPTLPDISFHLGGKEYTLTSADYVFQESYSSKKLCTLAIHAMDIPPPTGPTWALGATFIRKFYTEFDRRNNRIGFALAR
Test: Primary renin inhibition assay: IC50 in buffer, 384 well MTP (AngI quantified by EIA)
Method: Enzyme Immuno Assay (EIA) to Estimate AngI Accumulation and Renin Inhibition
The mixture was incubated overnight at 4° C., then dialyzed against 2 liters of 0.9% NaCl, twice for 4 h at rt, followed by dialysis against 2 liters of PBS 1× overnight at rt. […] The conjugate can be stored in polypropylene tubes in 0.05% sodium azide at 4° C. for at least 12 months.
The AngI (1-10)/BSA coated MTP were washed 3 times with wash buffer (PBS 1×, 0.01% Tween 20) and filled with 75 μl of primary antibody solution (anti-AngI antiserum, pre-diluted 1:10 in horse serum), diluted to a final concentration of 1:100'000 in assay buffer (PBS 1×, 1 mM EDTA, 0.1% BSA, pH 7.4). 5 μl of the renin reaction (or standards in assay buffer) (see below) were added to the primary antibody solution and the plates were incubated overnight at 4° C. […]
In the second step, the accumulated AngI is measured by an immunological assay (enzyme immuno assay, EIA). […]
Test compounds were dissolved and diluted in 100% DMSO and 2.5 μl added to the premix, then incubated at 37° C. for 3 h. At the end of the incubation period, 5 μl of the renin reaction (or standards in assay buffer) were transferred into EIA assays (as described above) and AngI produced by renin was quantified.

## COCCCc1cc(CN(C(=O)[C@H]2CNCC[C@]2(O)c2ccc(OCCOc3c(Cl)cc(C)cc3Cl)nc2)C2CC2)c(Cl)c[n+]1[O-] [Example 7, (3′S,4′R)-6-[2-(2,6-Dichloro-4-methyl-phenoxy)-ethoxy]-4′-hydroxy-1′,2′,3′,4′,5′,6′-hexahydro-[3,4′]bipyridinyl-3′-carboxylic acid [5-chloro-2-(3-methoxy-propyl)-1-oxy-pyridin-4-ylmethyl]-cyclopropyl-amide]
  IC50: 0.23 nM
